In brackets after ≈: the same amount, converted by molar mass.
How the values were obtained:
[1] = target: T1, Human immunodeficiency virus type 1 reverse transcriptase (Human immunodeficiency virus 1, UniProt Q72547); experiment: Inhibition of HIV-1 reverse transcriptase
[2] = test system: Human immunodeficiency virus 1; experiment: Antiviral activity against HIV-1 harboring Y188L mutant infected in human MT4 cells assessed as protection against virus-induced cytopathic effect incubated for 5 days by MTT assay; format: functional, organism-based; settings: Human immunodeficiency virus 1, MT4, 120 h
[3] = test system: Human immunodeficiency virus 1; experiment: Antiviral activity against HIV-1 harboring F227L/V106A double mutant infected in human MT4 cells assessed as protection against virus-induced cytopathic effect incubated for 5 days by MTT assay; format: functional, organism-based; settings: Human immunodeficiency virus 1, MT4, 120 h
[4] = test system: Human immunodeficiency virus 1; experiment: Antiviral activity against HIV-1 harboring RES056 mutant infected in human MT4 cells assessed as protection against virus-induced cytopathic effect incubated for 5 days by MTT assay; format: functional, organism-based; settings: Human immunodeficiency virus 1, MT4, 120 h
[5] = Cytotoxicity against human MT4 cells assessed as reduction in cell viability incubated for 5 days by MTT assay; format: toxicity, cell-based; settings: MT4 cells, time 5 day
[6] = Selectivity index, ratio of CC50 for cytotoxicity against human MT4 cells assessed as reduction in cell viability to EC50 for antiviral activity against wild type HIV-1 IIIB infected in human MT4 cells assessed as protection against virus-induced cytopathic effect; format: toxicity, cell-based; settings: MT4 cells, read-out: Ratio CC50/EC50
[7] = test system: Human immunodeficiency virus 1; experiment: Antiviral activity against HIV-1 harboring L100I mutant infected in human MT4 cells assessed as protection against virus-induced cytopathic effect incubated for 5 days by MTT assay; format: functional, organism-based; settings: Human immunodeficiency virus 1, MT4, 120 h
[8] = test system: Human immunodeficiency virus 1; experiment: Antiviral activity against HIV-1 harboring K103N mutant infected in human MT4 cells assessed as protection against virus-induced cytopathic effect incubated for 5 days by MTT assay; format: functional, organism-based; settings: Human immunodeficiency virus 1, MT4, 120 h
[9] = test system: Human immunodeficiency virus 1; experiment: Antiviral activity against HIV-1 harboring Y181C mutant infected in human MT4 cells assessed as protection against virus-induced cytopathic effect incubated for 5 days by MTT assay; format: functional, organism-based; settings: Human immunodeficiency virus 1, MT4, 120 h
[10] = test system: Human immunodeficiency virus 1; experiment: Antiviral activity against HIV-1 harboring E138K mutant infected in human MT4 cells assessed as protection against virus-induced cytopathic effect incubated for 5 days by MTT assay; format: functional, organism-based; settings: Human immunodeficiency virus 1, MT4, 120 h
[11] = target: T1, Human immunodeficiency virus type 1 reverse transcriptase; experiment: Inhibition of wildtype recombinant HIV-1 Reverse transcriptase incubated for 40 mins by spectrofluorometric analysis
[12] = test system: Human immunodeficiency virus 1; experiment: Antiviral activity against wild type HIV-1 IIIB infected in human MT4 cells assessed as protection against virus-induced cytopathic effect incubated for 5 days by MTT assay; format: functional, organism-based; settings: Human immunodeficiency virus 1, IIIB, MT4, 120 h
[13] = Solubility of compound in phosphate buffer at pH 2 incubated for 24 hrs by HPLC analysis; format: physicochemical
[14] = Solubility of compound in phosphate buffer at pH 7 incubated for 24 hrs by HPLC analysis; format: physicochemical
[15] = Solubility of compound in phosphate buffer at pH 7.4 incubated for 24 hrs by HPLC analysis; format: physicochemical
[16] = Solubility of compound incubated for 24 hrs by HPLC analysis; format: physicochemical

Row | SMILES | EC50 [1] [nM] | EC50 [2] [nM] | EC50 [3] [nM] | EC50 [4] [nM] | CC50 at 120 h [5] [nM] | selectivity ratio [6] | EC50 [7] [nM] | EC50 [8] [nM] | EC50 [9] [nM] | EC50 [10] [nM] | IC50 [11] [nM] | EC50 [12] [nM] | solubility at 24 h [13] [µg/mL] | solubility at 24 h [14] [µg/mL] | solubility at 24 h [15] [µg/mL] | solubility at 24 h [16] [µg/mL]
1 | COCCNC(=O)c1ccc(CN2CCC(Nc3ncc(CO)c(Oc4c(C)cc(-c5ccc(C#N)cc5)cc4C)n3)CC2)cc1 | 9 | 49 | 42 | 44 | 17600 | 1860 | 6 | 7 | 23 | 19 | 509 | – | – | – | – | –
2 | COCCNS(=O)(=O)c1ccc(CN2CCC(Nc3ncc(CO)c(Oc4c(C)cc(-c5ccncc5)cc4C)n3)CC2)cc1 | – | 48 | 122 | 157 | 45900 | 5130 | 9 | 7 | 39 | 48 | – | 9 | – | – | – | –
3 | Cc1cc(-c2ccncc2)cc(C)c1Oc1nc(NC2CCN(Cc3cccc(C(N)=O)c3)CC2)ncc1CO | – | 101 | 98 | 883 | > 232000 | > 23800 | – | – | – | – | 188 | 10 | – | – | – | –
4 | COCCNS(=O)(=O)c1ccc(CN2CCC(Nc3ncc(CO)c(Oc4c(C)cc(-c5ccc(C#N)cc5)cc4C)n3)CC2)cc1 | 6 | 47 | 34 | 45 | 6710 | 1030 | 6 | 7 | 34 | 40 | 575 | – | – | – | – | –
5 | Cc1cc(-c2ccc(C#N)cc2)cc(C)c1Oc1nc(NC2CCN(Cc3ccc(S(C)(=O)=O)cc3)CC2)ncc1CO | 8 | 58 | 52 | 163 | 9170 | 1190 | 8 | 18 | 19 | 36 | 270 | – | – | – | – | –
6 | CNS(=O)(=O)c1ccc(CN2CCC(Nc3ncc(CO)c(Oc4c(C)cc(-c5ccc(C#N)cc5)cc4C)n3)CC2)cc1 | 6 | 31 | 52 | 66 | 6680 | 1190 | 8 | 10 | 19 | 30 | 497 | – | – | – | – | –
7 | CNC(=O)c1ccc(CN2CCC(Nc3ncc(CO)c(Oc4c(C)cc(-c5ccncc5)cc4C)n3)CC2)cc1 | – | 122 | 133 | 925 | > 226000 | > 20200 | – | – | – | – | 253 | 11 | – | – | – | –
8 | Cc1cc(-c2ccncc2)cc(C)c1Oc1nc(NC2CCN(Cc3ccc(C(=O)NCCO)cc3)CC2)ncc1CO | – | 2010 | 2830 | 5680 | > 215000 | > 5500 | – | – | – | – | 222 | 39 | – | – | – | –
9 | Cc1cc(-c2ccc(C#N)cc2)cc(C)c1Oc1nc(NC2CCN(Cc3ccc(CO)cc3)CC2)ncc1CO | – | 56 | 51 | 307 | 18400 | 1980 | – | – | – | – | – | 9 | – | – | – | –
10 | Cc1cc(-c2ccncc2)cc(C)c1Oc1nc(NC2CCN(Cc3ccc(S(=O)(=O)N4CCC(O)CC4)cc3)CC2)ncc1CO | – | 226 | 43 | 446 | 17600 | 750 | – | – | – | – | – | 24 | – | – | – | –
11 | COCCNC(=O)c1ccc(CN2CCC(Nc3ncc(CO)c(Oc4c(C)cc(-c5ccncc5)cc4C)n3)CC2)cc1 | – | 46 | 64 | 58 | 110000 | 11200 | 11 | 5 | 34 | 50 | – | 10 | – | – | – | –
12 | CNS(=O)(=O)c1ccc(CN2CCC(Nc3ncc(CO)c(Oc4c(C)cc(-c5ccncc5)cc4C)n3)CC2)cc1 | – | 100 | 234 | 405 | > 212000 | > 14800 | – | – | – | – | 198 | 14 | – | – | – | –
13 | Cc1cc(-c2ccncc2)cc(C)c1Oc1nc(NC2CCN(Cc3ccc(C(N)=O)cc3)CC2)ncc1CO | – | 210 | 229 | 1470 | > 232000 | > 24800 | – | – | – | – | 183 | 9 | – | – | – | –
14 | Cc1cc(-c2ccc(C#N)cc2)cc(C)c1Oc1nc(NC2CCN(Cc3cccc(C#N)c3)CC2)ncc1CO | 8 | 51 | 122 | 990 | 5810 | 711 | 12 | 16 | 18 | 55 | 261 | – | – | – | – | –
15 | Cc1cc(-c2ccc(C#N)cc2)cc(C)c1Oc1nc(NC2CCN(Cc3ccc(C(=O)NCCCO)cc3)CC2)ncc1CO | 7 | 114 | 55 | 272 | 17300 | 2630 | 10 | 7 | 29 | 26 | 463 | – | – | – | – | –
16 | Cc1cc(C#N)cc(C)c1Oc1nc(Nc2ccc(C#N)cc2)nc(N)c1Br [ETRAVIRINE] | – | – | – | 37 | > 4610 | – | 6 | – | – | – | – | – | 127 (≈ 292 µM) | < 1 | < 1 | < 1
17 | Cc1cc(-c2ccncc2)cc(C)c1Oc1nc(NC2CCN(Cc3ccc(S(N)(=O)=O)cc3)CC2)ncc1CO | – | 177 | 65 | 329 | > 218000 | > 7620 | – | – | – | – | 192000 | 29 | – | – | – | –
18 | Cc1cc(-c2ccc(C#N)cc2)cc(C)c1Oc1nc(NC2CCN(Cc3ccc(S(N)(=O)=O)cc3)CC2)ncc1CO.Cl | – | – | – | – | – | – | – | – | – | – | – | – | > 56400 | < 1 | < 1 | 5270
19 | Cc1cc(-c2ccc(C#N)cc2)cc(C)c1Oc1nc(NC2CCN(Cc3ccc(C#N)cc3)CC2)ncc1CO | 7 | 59 | 71 | 294 | 4830 | 684 | 9 | 6 | 22 | 21 | 297 | – | – | – | – | –
